Laboratory results published in article PMC13267291, “In vivo functional profiling and structural characterization of the human GLP1R A316T variant” (Science Advances, 2026).

Experiments:
[1] = system: SNAP/FLAG-hGLP1R^A316T versus ^WT; test: Real-time cytosolic calcium assay (Cal-520, AM) in transduced hGLP1R^-/- mouse islets; type: cell-based, human; details: 100 nM; 6 mM glucose; AUC; n = 3-4; fig. S7D-H
Protocol: signal serially monitored for 30 min. The TR-FRET ratio, i.e. the ratio of fluorescence intensities at 590 and 490 nm, was considered indicative of the proximity of the GLP-1R ECD to the plasma membrane.
Baseline-normalised AUCs were used to generate concentration– response curves fitted using GraphPad Prism 10.1.2, with logEC50 and Emax calculated for each replicate dose response curve.
Real- time c ytosolic c alcium a ssay hGLP1R-/- mouse islets were transduced with pAV- SNAP/FLAG-hGLP1RWT or A316T adenoviruses for 24 hours, labelled with the Ca2+ dye Cal-520, AM (4.5 μM; Stratech) diluted in KBRH buffer containing 6 mM glucose for 1 hour and encased in Matrigel onto […] glass bottom MatTek dishes. Islets were then imaged every 6 s at 488 nm using a Nikon Eclipse Ti microscope with an ORCA-Flash 4.0 camera (Hamamatsu) and Metamorph software (Molecular Devices) at 37°C on a heated stage before and after addition of the indicated GLP-1RA followed by 11 mM glucose and then 20 mM KCl at the indicated time points. Raw fluorescence intensity traces from islet ROIs were extracted using Fiji. Responses were plotted relative to the average fluorescence intensity during the 6 mM glucose baseline period, before agonist addition, and AUCs separately calculated for the GLP- 1RA + 6 mM and 11 mM glucose […]
Isolation o f detergent-resistant membrane (D RM) fractions
To purify lipid rafts, […] fractions were isolated from INS-1 832/3 Glp1r-/- SNAP/FLAG-hGLP1RWT or A316T cells by ultracentrifugation based on their insolubility in non-ionic detergents at 4°C and their low density because of their high lipid-to- protein ratio. Cells seeded onto 6-cm dishes were stimulated ± 100 […]
mM tris-HCl, pH 7.0 buffer supplemented with cOmplete EDTA-free protease inhibitor cocktail (Roche) and phosphatase inhibitor cocktail 2 (Sigma-Aldrich) for 10-15 minutes on a rocking platform at 4°C. The cell suspension was collected and homogenised by passing through a 21-gauge needle, followed by ultracentrifugation at 63,000 g f or 1 hour at 4°C with a Sorvall Discovery M120 ultracentrifuge. Pellets

[2] = system: SNAP/FLAG-hGLP1R^A316T versus ^WT; test: Real-time cAMP imaging (cADDis) in INS-1 832/3 sublines; type: cell-based, rat; details: 100 nM, n = 4, no significant differences, fig. S8K-P
Protocol: To measure cAMP, hGLP1R^A316T/A316T versus ^+/+ control mouse islets, or INS-1 832/3 SNAP/FLAG-hGLP1R^WT versus ^A316T cells cultured on glass-bottom MatTek dishes, were transduced with cADDis (Green Gs cADDis cAMP Kit, Montana Molecular), a baculovirus genetically encoding a fluorescent cAMP in situ biosensor, following the manufacturer’s instructions. Transduced islets were subsequently encased into Matrigel on glass-bottom MatTek dishes 24 hours after transduction, and both islets and cells were imaged at λex = 488 nm in a Nikon Eclipse Ti spinning disk confocal microscope and 20× objective with an ORCA-Flash 4.0 camera (Hamamatsu) for time-lapse recordings with image acquisitions every 6 s in KRBH buffer containing 0.1% (w/v) BSA and 6 mM glucose for 2 min to record the baseline, with 100 nM GLP-1RA subsequently added by manual pipetting, and islets imaged for a further 5 min before addition of 100 μM IBMX + 10 μM forskolin for the final 2 min of the acquisition. Raw green fluorescence intensity traces were extracted from whole islet regions of interest (ROIs) using Fiji, and mean intensities were calculated for each ROI and time point. Responses were plotted relative to average fluorescence intensity per islet during the baseline period before GLP-1RA addition.

[3] = system: hGLP1R^A316T-SmBiT versus hGLP1R^WT-SmBiT; test: Mini-Gs recruitment by NanoBiT complementation; type: cell-based, human; details: serial doses up to 100 nM; n = 5; Fig. 7L
Protocol: For mini-Gs recruitment, INS-1 832/3 Glp1r^−/− cells were seeded in 6-cm dishes and transiently cotransfected with 1.7 μg each of hGLP1R^WT or ^A316T-SmBiT and LgBiT-mini-Gs constructs for 24 hours. Cells were then detached, resuspended in Hanks’ balanced salt solution (HBSS) containing NanoGlo Live Cell Reagent (1:20; Promega) with furimazine, and seeded onto white 96-well half-area plates. Baseline luminescence was immediately recorded over 8 min at 37°C in a Flexstation 3 plate reader (Molecular Devices) and for a further 30 min after GLP-1RA addition at serial doses up to 100 nM. Readings were taken every 30 s and normalized to average well baseline, and average vehicle-induced signal was subtracted to establish the agonist-induced effect. To measure β-arrestin 2 recruitment, cells were processed as above with slight modifications: INS-1 832/3 Glp1r^−/− cells were cotransfected with 1.77 μg each of hGLP1R^WT or ^A316T-SmBiT and LgBiT–β-arrestin 2 plasmids for 24 hours, and GLP-1RAs were added at serial doses up to 1 μM. AUCs were calculated for each agonist concentration and fitted to log(agonist) versus response four-parameter curves using GraphPad Prism 10.1.2, with errors propagated for mini-Gs over β-arrestin 2 recruitment bias calculations.

[4] = system: SNAP/FLAG-hGLP1R^A316T versus ^WT; test: GLP-1R recycling assay; type: cell-based, human; details: INS-1 832/3 sublines; 1 hour agonist, 1 and 3 hours recycling; n = 3-4; Fig. 7H
Protocol: INS-1 832/3 Glp1r^−/− SNAP/FLAG-hGLP1R^WT or ^A316T cells were seeded as above for 24 hours, washed with HBSS, pretreated with vehicle or GLP-1RA for 1 hour at 37°C in complete medium, washed again, and treated with 100 nM exendin-4–TMR in reverse time order for 3 hours and 1 hour at 37°C in complete medium. Plates were then promptly imaged after washing as above. In this assay, total exendin-4–TMR uptake is indicative of residual surface receptor at the end of the GLP-1RA treatment and cumulative reappearance of the surface receptor during the recycling period.

Substance	Agonist-induced Ca^2+ responses, A316T versus WT [1]	cAMP responses, A316T versus WT [2]	A316T mini-Gs recruitment versus WT, log(Emax/EC50) [3]	A316T receptor recycling to the plasma membrane versus WT [4]
GLP-1(7-36)NH2	not significantly different	tendency for increased cAMP	No significant changes	significantly reduced
exendin-4	not significantly different	reduced responses	No significant changes	not different from WT
exendin-F1	increased	tendency for increased cAMP	increased potency	not different from WT
